Reference: article PMC11819603, “Development of a reliable, sensitive, and convenient assay for the discovery of new eIF5A hypusination inhibitors” (PLOS ONE, 2025)
Where two headings read alike, the source gives them in different places.

Experiments:
DOHH = biological target: T1, DOHH (Homo sapiens, UniProt Q9BU89); assay: Hyp'Assay, substance added after the deoxyhypusination reaction (DOHH step); type: biochemical; settings: 5 μM spermidine
T1 construct: pelB leader (N); host or cells: E. coli BL21 (DE3)
T1 sequence (Q9BU89 1-302): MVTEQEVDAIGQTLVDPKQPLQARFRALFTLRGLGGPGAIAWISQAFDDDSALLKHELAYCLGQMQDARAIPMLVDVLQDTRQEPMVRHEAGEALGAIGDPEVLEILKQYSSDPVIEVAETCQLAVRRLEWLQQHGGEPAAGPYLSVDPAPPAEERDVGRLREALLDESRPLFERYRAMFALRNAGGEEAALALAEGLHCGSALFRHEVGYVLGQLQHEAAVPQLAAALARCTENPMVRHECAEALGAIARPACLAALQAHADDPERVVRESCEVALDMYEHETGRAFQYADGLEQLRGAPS
Description: We then tested the ability of DOHH inhibitors to inhibit eIF5A hypusination using the Hyp’Assay. During the Hyp’Assay, DOHH inhibitors were added after the deoxyhypusination reaction.
To address this issue, we compared the ability of GC7 to inhibit DHPS or DOHH by adding GC7 during the first step of the Hyp’Assay; when DHPS mediates the deoxyhypusination reaction (Fig 2A), or only during the second step, when DOHH hydroxylate deoxyhypusinated eIF5A. […] When finding new hypusination inhibitors adding them during the first or the second step of the Hyp’Assay will allow us to determine if the inhibition affects DHPS or DOHH. Another way to discriminate between DHPS or DOHH inhibitors would be to use Hpu98, an antibody that recognized both hypusinated and deoxyhypusinated eIF5A, instead of Hpu24, which is specific for hypusinated eIF5A [18]. […] We performed a new Hyp’Assay by omitting DOHH in the reaction mix and using the Hpu98 antibody. First, we performed a dose response experiment with spermidine at pH: 8.0 and 9.0 (Fig 3E). […] We also tested the ability of GC7 (Fig 3F) and CPX or EDTA (Fig 3G) to inhibit DHPS.
[…] Then 10 μL containing 1 μg of DOHH with 10 μM Fe^2+ (H8FeN2O8S2^. 6H2O) were added. After 1 h proteins were analyzed by Western Blot using antibodies toward DHPS, DOHH, Hypusine, and eIF5A.
The cell-free reaction described in 4.4 is performed in triplicates in a 96-wells plate (MaxiSorp, ThermoFisher) in the presence of 3 μg of eIF5A, 2 μg of DHPS, and 2 μg of DOHH by well. The reaction product, hypusinated eIF5A, is adsorbed onto the plate overnight at 4°C. The plate is washed (100 μL/well) thrice with PBS-T (PBS– 0.05% Tween20), then saturated with 1% non-fat dry milk in PBS-T for 2 h at room temperature. The plate is washed thrice with PBS-T and incubated overnight at 4°C with the anti-hypusine antibody (1:2000 in saturation buffer, 50 μL/well). The next day and after 5 washes with PBS-T, HRP-coupled anti-rabbit secondary antibody diluted 1:5000 in saturation buffer (50 μL/well) is added for 2 h at room temperature.

DHPS = settings: read-out: IC50 previously reported, cited from earlier work

SMILES: N=C(N)NCCCCCCCN [GC7, N1-guanyl-1,7-diaminoheptane]
- Relative hypusination of eIF5A, Mean (quantification from Figure 3D) (DOHH; GC7 added during the DOHH step, CTRL 100,0): 99,58 a.u
- effect on hypusination (DOHH; added only during the hydroxylation step (DOHH)): no inhibition was observed
- IC50 (DHPS; ref 25): 17 nM
- IC50 (DHPS; ref 26): 50 nM
